From the NIST ThermoML archive (doi:10.1021/acs.jced.9b00396)
Numbers after ± are expanded uncertainties.

Settings: Liquid; for speed of sound: Frequency=3 MHz, Single path-length method; for mass density: Vibrating tube method

CC(=O)OCCC(C)C [3-methylbutyl ethanoate]
Settings	mass density [kg/m3]	speed of sound [m/s]
293.15 K, 100 kPa	872.9 ± 0.9	1213 ± 3
293.15 K, 500 kPa	874 ± 1	–
293.15 K, 1000 kPa	874 ± 1	–
293.15 K, 2500 kPa	875 ± 1	–
293.15 K, 5000 kPa	877 ± 1	–
293.15 K, 7500 kPa	879 ± 1	–
293.15 K, 10000 kPa	881 ± 1	–
293.15 K, 12500 kPa	883 ± 1	–
293.15 K, 15000 kPa	885 ± 1	–
293.15 K, 17500 kPa	887 ± 1	–
293.15 K, 20000 kPa	889 ± 1	–
293.15 K, 22500 kPa	891 ± 1	–
293.15 K, 25000 kPa	893 ± 1	–
293.15 K, 27500 kPa	895 ± 1	–
293.15 K, 30000 kPa	896 ± 1	–
293.15 K, 32500 kPa	898 ± 1	–
293.15 K, 35000 kPa	899 ± 1	–
293.15 K, 37500 kPa	901 ± 1	–
298.15 K, 100 kPa	868 ± 0.9	1193 ± 3
298.15 K, 500 kPa	869 ± 1	–
298.15 K, 1000 kPa	869 ± 1	–
298.15 K, 2500 kPa	870 ± 1	–
298.15 K, 5000 kPa	873 ± 1	–
298.15 K, 7500 kPa	875 ± 1	–
298.15 K, 10000 kPa	877 ± 1	–
298.15 K, 12500 kPa	879 ± 1	–
298.15 K, 15000 kPa	881 ± 1	–
298.15 K, 17500 kPa	883 ± 1	–
298.15 K, 20000 kPa	885 ± 1	–
298.15 K, 22500 kPa	886 ± 1	–
298.15 K, 25000 kPa	888 ± 1	–
298.15 K, 27500 kPa	890 ± 1	–
298.15 K, 30000 kPa	892 ± 1	–
298.15 K, 32500 kPa	894 ± 1	–
298.15 K, 35000 kPa	895 ± 1	–
298.15 K, 37500 kPa	897 ± 1	–
313.15 K, 100 kPa	853.3 ± 0.9	1132 ± 3
313.15 K, 500 kPa	854 ± 1	–
313.15 K, 1000 kPa	854 ± 1	–
313.15 K, 2500 kPa	856 ± 1	–
313.15 K, 5000 kPa	858 ± 1	–
313.15 K, 7500 kPa	861 ± 1	–
313.15 K, 10000 kPa	863 ± 1	–
313.15 K, 12500 kPa	865 ± 1	–
313.15 K, 15000 kPa	867 ± 1	–
313.15 K, 17500 kPa	869 ± 1	–
313.15 K, 20000 kPa	871 ± 1	–
313.15 K, 22500 kPa	873 ± 1	–
313.15 K, 25000 kPa	875 ± 1	–
313.15 K, 27500 kPa	877 ± 1	–
313.15 K, 30000 kPa	879 ± 1	–
313.15 K, 32500 kPa	881 ± 1	–
313.15 K, 35000 kPa	883 ± 1	–
313.15 K, 37500 kPa	885 ± 1	–
333.15 K, 100 kPa	833.3 ± 0.9	1045 ± 3
333.15 K, 500 kPa	834 ± 1	–
333.15 K, 1000 kPa	834 ± 1	–
333.15 K, 2500 kPa	836 ± 1	–
333.15 K, 5000 kPa	839 ± 1	–
333.15 K, 7500 kPa	842 ± 1	–
333.15 K, 10000 kPa	844 ± 1	–
333.15 K, 12500 kPa	847 ± 1	–
333.15 K, 15000 kPa	849 ± 1	–
333.15 K, 17500 kPa	851 ± 1	–
333.15 K, 20000 kPa	854 ± 1	–
333.15 K, 22500 kPa	856 ± 1	–
333.15 K, 25000 kPa	858 ± 1	–
333.15 K, 27500 kPa	860 ± 1	–
333.15 K, 30000 kPa	862 ± 1	–
333.15 K, 32500 kPa	864 ± 1	–
333.15 K, 35000 kPa	866 ± 1	–
333.15 K, 37500 kPa	868 ± 1	–
353.15 K, 500 kPa	814 ± 1	–
353.15 K, 1000 kPa	814 ± 1	–
353.15 K, 2500 kPa	816 ± 1	–
353.15 K, 5000 kPa	819 ± 1	–
353.15 K, 7500 kPa	823 ± 1	–
353.15 K, 10000 kPa	825 ± 1	–
353.15 K, 12500 kPa	828 ± 1	–
353.15 K, 15000 kPa	831 ± 1	–
353.15 K, 17500 kPa	834 ± 1	–
353.15 K, 20000 kPa	836 ± 1	–
353.15 K, 22500 kPa	839 ± 1	–
353.15 K, 25000 kPa	841 ± 1	–
353.15 K, 27500 kPa	843 ± 1	–
353.15 K, 30000 kPa	846 ± 1	–
353.15 K, 32500 kPa	848 ± 1	–
353.15 K, 35000 kPa	850 ± 1	–
353.15 K, 37500 kPa	852 ± 1	–
373.15 K, 500 kPa	793 ± 1	–
373.15 K, 1000 kPa	794 ± 1	–
373.15 K, 2500 kPa	796 ± 1	–
373.15 K, 5000 kPa	800 ± 1	–
373.15 K, 7500 kPa	803 ± 1	–
373.15 K, 10000 kPa	806 ± 1	–
373.15 K, 12500 kPa	810 ± 1	–
373.15 K, 15000 kPa	813 ± 1	–
373.15 K, 17500 kPa	816 ± 1	–
373.15 K, 20000 kPa	818 ± 1	–
373.15 K, 22500 kPa	821 ± 1	–
373.15 K, 25000 kPa	824 ± 1	–
373.15 K, 27500 kPa	827 ± 1	–
373.15 K, 30000 kPa	829 ± 1	–
373.15 K, 32500 kPa	832 ± 1	–
373.15 K, 35000 kPa	834 ± 1	–
373.15 K, 37500 kPa	836 ± 1	–
393.15 K, 500 kPa	772 ± 1	–
393.15 K, 1000 kPa	773 ± 1	–
393.15 K, 2500 kPa	775 ± 1	–
393.15 K, 5000 kPa	779 ± 1	–
393.15 K, 7500 kPa	783 ± 1	–
393.15 K, 10000 kPa	787 ± 1	–
393.15 K, 12500 kPa	791 ± 1	–
393.15 K, 15000 kPa	794 ± 1	–
393.15 K, 17500 kPa	798 ± 1	–
393.15 K, 20000 kPa	801 ± 1	–
393.15 K, 22500 kPa	804 ± 1	–
393.15 K, 25000 kPa	807 ± 1	–
393.15 K, 27500 kPa	810 ± 1	–
393.15 K, 30000 kPa	812 ± 1	–
393.15 K, 32500 kPa	815 ± 1	–
393.15 K, 35000 kPa	818 ± 1	–
393.15 K, 37500 kPa	820 ± 1	–
413.15 K, 500 kPa	750 ± 1	–
413.15 K, 1000 kPa	751 ± 1	–
413.15 K, 2500 kPa	754 ± 1	–
413.15 K, 5000 kPa	759 ± 1	–
413.15 K, 7500 kPa	763 ± 1	–
413.15 K, 10000 kPa	768 ± 1	–
413.15 K, 12500 kPa	772 ± 1	–
413.15 K, 15000 kPa	776 ± 1	–
413.15 K, 17500 kPa	779 ± 1	–
413.15 K, 20000 kPa	783 ± 1	–
413.15 K, 22500 kPa	786 ± 1	–
413.15 K, 25000 kPa	790 ± 1	–
413.15 K, 27500 kPa	793 ± 1	–
413.15 K, 30000 kPa	796 ± 1	–
413.15 K, 32500 kPa	799 ± 1	–
413.15 K, 35000 kPa	802 ± 1	–
413.15 K, 37500 kPa	805 ± 1	–
433.15 K, 500 kPa	726 ± 1	–
433.15 K, 1000 kPa	727 ± 1	–
433.15 K, 2500 kPa	731 ± 1	–
433.15 K, 5000 kPa	737 ± 1	–
433.15 K, 7500 kPa	742 ± 1	–
433.15 K, 10000 kPa	747 ± 1	–
433.15 K, 12500 kPa	752 ± 1	–
433.15 K, 15000 kPa	757 ± 1	–
433.15 K, 17500 kPa	761 ± 1	–
433.15 K, 20000 kPa	765 ± 1	–
433.15 K, 22500 kPa	769 ± 1	–
433.15 K, 25000 kPa	772 ± 1	–
433.15 K, 27500 kPa	776 ± 1	–
433.15 K, 30000 kPa	779 ± 1	–
433.15 K, 32500 kPa	783 ± 1	–
433.15 K, 35000 kPa	786 ± 1	–
433.15 K, 37500 kPa	789 ± 1	–
453.15 K, 500 kPa	701 ± 1	–
453.15 K, 1000 kPa	703 ± 1	–
453.15 K, 2500 kPa	707 ± 1	–
453.15 K, 5000 kPa	714 ± 1	–
453.15 K, 7500 kPa	721 ± 1	–
453.15 K, 10000 kPa	727 ± 1	–
453.15 K, 12500 kPa	732 ± 1	–
453.15 K, 15000 kPa	737 ± 1	–
453.15 K, 17500 kPa	742 ± 1	–
453.15 K, 20000 kPa	747 ± 1	–
453.15 K, 22500 kPa	751 ± 1	–
453.15 K, 25000 kPa	755 ± 1	–
453.15 K, 27500 kPa	759 ± 1	–
453.15 K, 30000 kPa	763 ± 1	–
453.15 K, 32500 kPa	766 ± 1	–
453.15 K, 35000 kPa	770 ± 1	–
453.15 K, 37500 kPa	773 ± 1	–
473.15 K, 500 kPa	674 ± 1	–
473.15 K, 1000 kPa	676 ± 1	–
473.15 K, 2500 kPa	682 ± 1	–
473.15 K, 5000 kPa	691 ± 1	–
473.15 K, 7500 kPa	698 ± 1	–
473.15 K, 10000 kPa	705 ± 1	–
473.15 K, 12500 kPa	712 ± 1	–
473.15 K, 15000 kPa	717 ± 1	–
473.15 K, 17500 kPa	723 ± 1	–
473.15 K, 20000 kPa	728 ± 1	–
473.15 K, 22500 kPa	733 ± 1	–
473.15 K, 25000 kPa	738 ± 1	–
473.15 K, 27500 kPa	742 ± 1	–
473.15 K, 30000 kPa	746 ± 1	–
473.15 K, 32500 kPa	750 ± 1	–
473.15 K, 35000 kPa	754 ± 1	–
473.15 K, 37500 kPa	757 ± 1	–
